From patent US20070049564A1 (Wyeth, priority 2005, published 2007)
Converted amounts (≈) assume the structure as drawn.

Assays:
Assay in all cases: MIC, broth microdilution
S. aureus GC 6466 = conditions: Staphylococcus aureus, GC6466, pre-incubation in mouse serum
E. coli GC 1073 = test system: E. coli GC 1073
E. coli GC 2203 = test system: E. coli GC 2203
S. typhimurium GC 2172 = conditions: Salmonella enterica, TYPHIMURIUM
E. coli GC 2235 = test system: E. coli GC 2235
S. aureus GC 6469 = test system: S. aureus GC 6469
S. aureus GC 6335 = test system: S. aureus GC 6335
S. agalactiae GC 4564 = test system: S. agalactiae GC 4564
S. pyogenes GC 4563 = test system: S. pyogenes GC 4563
E. coli GC 2270 = conditions: Escherichia coli, GC2270, pre-incubation in mouse serum
Procedure: Antimicrobial susceptibility testing. The in vitro activities of the antibiotics are determined by the broth microdilution method as recommended by the National Committee for Clinical Laboratory Standards (NCCLS) (1). Mueller-Hinton II broth (MHBII)(BBL Cockeysville, Md.) is the medium employed in the testing procedures. Microtiter plates containing serial dilutions of each antimicrobial agent are inoculated with each organism to yield the appropriate density (10^5 CFU/ml) in a 100 μl final volume. The plates are incubated for 18-22 hours at 35° C. in ambient air.
Representative compounds were first incubated in mouse serum for an hour prior to the in vitro testing against a panel of selected gram-positive and gram-negative bacteria strains. All compounds were also pre-incubated in water for an hour prior to testing as control. Representative compounds of Formula I were incubated in human serum prior to MIC determination.

S. aureus GC 6467 = test system: S. aureus GC 6467
E. coli GC 3226 = test system: E. coli GC 3226
E. faecium GC 4556 = conditions: Enterococcus faecium
S. aureus GC 1079 = test system: S. aureus GC 1079

CCCCN(CC(=O)Nc1cc(N(C)C)c2c(c1O)C(=O)C1=C(O)[C@]3(O)C(=O)C(C(N)=O)=C(O)[C@@H](N(C)C)C3CC1C2)C(=O)OCc1oc(=O)oc1C (stereo partly drawn) [Example 109, (5-methyl-2-oxo-1,3-dioxol-4-yl)methyl 2-{[(7S,10aS)-9-(aminocarbonyl)-4,7-bis(dimethylamino)-1,8,10a,11-tetrahydroxy-10,12-dioxo-5,5a,6,6a,7,10,10a,12-octahydrotetracen-2-yl]amino}-2-oxoethyl(butyl)carbamate]
MIC (S. aureus GC 6466): 0.5 µg/mL (≈ 0.674 µM) | MIC (E. coli GC 1073; Escherichia coli, GC1073, pre-incubation in mouse serum): 0.5 µg/mL (≈ 0.674 µM) | MIC (E. coli GC 1073; pre-incubation in mouse serum): 1 UG/ML | MIC (E. coli GC 2203; Escherichia coli, GC2203, pre-incubation in mouse serum): 0.5 µg/mL (≈ 0.674 µM) | MIC (E. coli GC 2203; Escherichia coli, GC2203, pre-incubation in water): 1 µg/mL (≈ 1.35 µM) | MIC (E. coli GC 2203; pre-incubation in water): 2 UG/ML | MIC (S. typhimurium GC 2172; pre-incubation in mouse serum): 4 µg/mL (≈ 5.39 µM) | MIC (S. typhimurium GC 2172; pre-incubation in water): 16 µg/mL (≈ 21.6 µM) | MIC (E. coli GC 2235; Escherichia coli, GC2235, pre-incubation in mouse serum): 0.25 µg/mL (≈ 0.337 µM) | MIC (E. coli GC 2235; Escherichia coli, GC2235, pre-incubation in water): 0.5 µg/mL (≈ 0.674 µM) | MIC (E. coli GC 2235; pre-incubation in mouse serum): 0.50 UG/ML | MIC (E. coli GC 2235; pre-incubation in water): 1 UG/ML | MIC (S. aureus GC 6469; Staphylococcus aureus, GC6469, pre-incubation in mouse serum): 1 µg/mL (≈ 1.35 µM) | MIC (S. aureus GC 6469; pre-incubation in mouse serum): 2 UG/ML | MIC (S. aureus GC 6335; Staphylococcus aureus, GC6335, pre-incubation in mouse serum): 2 µg/mL (≈ 2.7 µM) | MIC (S. aureus GC 6335; Staphylococcus aureus, GC6335, pre-incubation in water): 4 µg/mL (≈ 5.39 µM) | MIC (S. aureus GC 6335; pre-incubation in mouse serum): 1 UG/ML | MIC (S. agalactiae GC 4564; Streptococcus agalactiae, GC4564, pre-incubation in mouse serum): 0.12 µg/mL (≈ 0.162 µM) | MIC (S. agalactiae GC 4564; Streptococcus agalactiae, GC4564, pre-incubation in water): 0.25 µg/mL (≈ 0.337 µM) | MIC (S. agalactiae GC 4564; pre-incubation in mouse serum): <0.06 UG/ML | MIC (S. pyogenes GC 4563; Streptococcus pyogenes, GC4563, pre-incubation in mouse serum): < 0.06 µg/mL | MIC (S. pyogenes GC 4563; pre-incubation in mouse serum): 0.12 UG/ML | MIC (E. coli GC 2270): 0.25 µg/mL (≈ 0.337 µM) | MIC (S. aureus GC 6467; Staphylococcus aureus, GC6467, pre-incubation in mouse serum): 2 µg/mL (≈ 2.7 µM) | MIC (S. aureus GC 6467; Staphylococcus aureus, GC6467, pre-incubation in water): 4 µg/mL (≈ 5.39 µM) | MIC (S. aureus GC 6467; pre-incubation in water): 8 UG/ML | MIC (E. coli GC 3226; Escherichia coli, GC3226, pre-incubation in mouse serum): 0.5 µg/mL (≈ 0.674 µM) | MIC (E. coli GC 3226; pre-incubation in mouse serum): 1 UG/ML | MIC (E. faecium GC 4556; GC4556, pre-incubation in mouse serum): 1 µg/mL (≈ 1.35 µM) | MIC (E. faecium GC 4556; GC4556, pre-incubation in water): 2 µg/mL (≈ 2.7 µM) | MIC (S. aureus GC 1079; Staphylococcus aureus, GC1079, pre-incubation in mouse serum): 2 µg/mL (≈ 2.7 µM) | MIC (S. aureus GC 1079; Staphylococcus aureus, GC1079, pre-incubation in water): 4 µg/mL (≈ 5.39 µM) | MIC (S. aureus GC 1079; pre-incubation in water): 8 UG/ML
